# Reference: patent US20110105959A1, “Novel Methods for Bone Treatment by Modulating an Arachidonic Acid Metabolic or Signaling Pathway” (ACCELALOX, INC., priority 2008, published 2011)
# How the values were obtained:
# [1] = system: fetal rat calvaria (osteoblast) cells; details: in vitro; cited from earlier work
# [2] = system: mouse calvaria; details: in vitro organ culture; cited from earlier work
# [3] = system: critical-size (8 mm) femur segmental defect; test: Critical-size femur segmental defect repaired with scaffold laden with ex vivo treated bone marrow; format: in vivo, Sprague-Dawley rats; details: for mineralized tissue in the femur segmental defect on radiographs: 2 weeks after implantation, marrow treated ex vivo, versus vehicle-bone marrow scaffold control; for bone remodeling at the fracture site compared to control rats: FIG. 10, bone marrow aspirate treated ex vivo prior to administration
# Experimental: Critical-size (8 mm) segmental defects were made in the right femur of 450-500 g male Sprague-Dawley rats. The defects were repaired as described by Rai et al. [Combination of platelet-rich plasma with polycaprolactone-tricalcium phosphate scaffolds for segmental defect repair. Journal of Biomedical Materials Research 81A:888-899 (2007)] except the polycaprolactone-tricalcium phosphate scaffolds were filled with autologous bone marrow that was treated ex vivo as described below rather than with platelet-rich plasma.
# Following induction of anesthesia, bone marrow was harvested from the left femur of each rat. A medial peripatellar incision was made to the left femur and the patella was dislocated laterally to provide access to the femoral condyles. Using an 18 gauge needle, a hole was drilled into the femoral canal and the bone marrow collected into the bore of the 18 gauge needle. The marrow was forced from the syringe needle into a small test tube using 100 μl of saline containing 20 units of heparin. The harvested marrow was then treated with the dimethyl sulfoxide (DMSO) or AA-861 (1 μl of 100 mg/ml in DMSO) which is a 5-LO inhibitor. After 5 minutes, 20 μl of a thrombin and CaCl2 solution (1,000 units thrombin per ml in 10% CaCl2) was added to each marrow sample. Each marrow sample was gently mixed and applied to a polycaprolactone-tricalcium phosphate scaffold that was set upright in a 0.2 ml tube. Each marrow-laden scaffold was incubated at room temperature for 10 minutes to allow clotting to occur and was then inserted into the femoral defects.
# Critical-size femoral defects were made in male Sprague-Dawley rats as described above in EXAMPLE 7. The defects were treated with bone marrow laden scaffolds as described above. […] Journal of Medicinal Chemistry 43:721-735 (2000)] (FIG. 10C), or with (c) LY-255283 (5 μl of a 1 mg/ml solution in DMSO) which is a leukotriene B4 receptor antagonist [Herron et al. Leukotriene B4 receptor antagonists: the LY255283 series of hydroxyacetophenones. Journal of Medicinal Chemistry 35:1818-1828 (1992)] (FIG. 10D).
# [4] = system: closed femur fracture; test: Closed femur fracture healing in rats treated with 5-LO inhibitors (radiographs, torsional mechanical testing); format: in vivo, Sprague-Dawley rats; details: for fracture bridging / healing on radiographs: Example 4, FIG. 8, NDGA 30 mg/kg or AA-861 5 mg/kg twice daily until day 21, 3 weeks of healing; for greater peak torque than vehicle treated rats: Example 4, FIG. 8D, torsional mechanical testing after 5 weeks of healing, NDGA 30 mg/kg, AA-861 5 mg/kg; for mode of femur failure in torsional mechanical testing: Example 4, after 5 weeks of healing
# Experimental: Sprague-Dawley rats (3 months old) underwent a standard closed femur fracture procedure as described in the art [Simon et al., Cyclo-oxygenase 2 function is essential for bone fracture healing. Journal of Bone and Mineral Research, 17: 963-976 (2002); Bonnarens and Einhorn, Production of a standard closed fracture in laboratory animal bone. Journal of Orthopaedic Research, 2: 97-101 (1984)]. The impending fracture was stabilized with an intramedullary stainless steel pin. Beginning 4 hours after fracture the rats were treated with 30 mg/kg of NDGA (nordihydrogaiaretic acid) in 1% methylcellulose (5-lipoxygenase inhibitor treatment group) or with carrier only (1% methylcellulose). The day after surgery and continuing until day 14 post-fracture, experimental rats were treated with 2 doses of NDGA (30 mg/kg), the first dose between […] and then again with another NDGA dose 8-10 hours later. Control rats were treated similarly but with carrier only (1% methylcellulose). Three weeks after fracture, the rats were sacrificed, the fractured femurs were harvested, and high resolution radiographs were made of the fractured femurs using a Packard Faxitron and Kodak MinR2000 mammography film. Two representative radiographs are shown in FIG. 7 for each treatment group: control and 5-lipoxygenase (5-LO) inhibitor treated.
# Sprague-Dawley rats (3 months old) underwent a standard closed femur fracture procedure as described in the art (Simon et al., Cyclo-oxygenase 2 function is essential for bone fracture healing. Journal of Bone and Mineral Research, 17: 963-976 (2002); Bonnarens and Einhorn, Production of a standard closed fracture in laboratory animal bone. Journal of Orthopaedic Research, 2: 97-101 (1984)]. The impending fracture was stabilized with an intramedullary stainless steel pin. Beginning 4 hours after fracture the rats were treated with vehicle (1% methylcellulose) or inhibitors of 5-LO suspended in 1% methylcellulose. Inhibitor A (NDGA) was administered at 30 mg/kg and Inhibitor B (AA-861) was administered at 5 mg/kg. The day after surgery and continuing until day 21 post-fracture, experimental rats were treated with 2 doses of inhibitor (either A or B), the first dose between 8-10 AM and then again with another dose 8-10 hours later. Control rats were treated similarly but with carrier only (1% methylcellulose). Three weeks after fracture the rats were anesthetized and high resolution radiographs were made of the fractured femurs using a Packard Faxitron and Kodak MinR2000 mammography film (FIGS. 8A, 8B, and 8C). Five weeks after fracture the rats were sacrificed, femurs resected, and assayed for structural mechanical properties by torsional mechanical testing (FIG. 8D).
# [5] = system: Saos-2 cells; details: in vitro; LTB4 at higher concentration (0.3-1 micromolar); cited from earlier work
# [6] = system: 8 mm diaphyseal segmental defect in the right femur; test: Femur segmental defect repaired with scaffold impregnated with calcium sulfate containing a leukotriene pathway modifier; format: in vivo, Sprague-Dawley rats; details: after 3 weeks of healing; local application in calcium sulfate, 1-5% w/w; FIG. 16
# From the text: Male Sprague-Dawley rats underwent surgery during which an 8 mm diaphyseal, segmental defect in the right femur was made as described by Rai et al. [Combination of platelet-rich plasma with polycaprolactone-tricalcium phosphate scaffolds for segmental bone defect repair. Journal of Biomedical Materials Research […]:888-899 (2007)]. The defect was repaired with a polycaprolactone-tricalcium phosphate scaffold (8 mm long×3 mm diameter; Osteopore International, Singapore) or the scaffold impregnated with calcium sulfate containing a leukotriene pathway modifier. […] Journal of Medicinal Chemistry 43:721-735 (2000)]; and LY-255283 (1% w/w), a potent and specific leukotriene B4 receptor antagonist [Herron et al. Leukotriene B4 receptor antagonists: the LY255283 series of hydroxyacetophenones. Journal of Medicinal Chemistry 35:1818-1828 (1992)]. Healing of the segmental defects was assessed after 3 weeks of healing by radiographs (FIG. 16).
# [7] = system: 5-lipoxygenase or LTA4 hydrolase activity measured by the level of LTB4 in platelet-rich plasma; test: Ex vivo treatment of platelet-rich plasma, leukotriene B4 levels by enzyme-linked immune-assay; format: cell-based, rat; details: FIG. 9; 1 ug/ml; activated with thrombin and calcium chloride
# From the text: Platelet-rich plasma is used clinically to augment fracture healing and other osteogenic processes [Wrotniak et al. Current opinion about using the platelet-rich gel in orthopaedics and trauma surgery. […] Platelet-rich plasma is enriched with platelets and white blood cells from whole blood by centrifugal separation. White blood cells, such as, macrophages, monocytes, and neutrophils, are a major source of 5-lipoxygenase activity [Woods et al. 5-lipoxygenase and 5-lipoxygenase-activating protein are localized in the nuclear envelope of activated human leukocytes.
# Male Sprague-Dawley rats (450-500 g body weight) were used. Platelet-rich plasma was prepared as described previously using differential centrifugation [Gandhi et al. The effects of local platelet rich plasma delivery on diabetic fracture healing. […] Five minutes after drug treatment, the treated platelet-rich plasma was activated by addition of thrombin (100 units/ml) and calcium chloride (10 mg/ml) followed by incubation for 15 minutes at 37° C. The reaction was stopped and the platelet-rich plasma was separated by high-speed centrifugation (14,000 RPM). The supernatant was collected and assayed for leukotriene B4 levels using a commercial enzyme-linked immune-assay from Cayman Chemicals, Ann Arbor, Mich.
# [8] = system: primary rat calvaria (osteoblast) cultures; details: in vitro; cited from earlier work
# [9] = system: G292 cells; details: in vitro; LTB4 at higher concentration (0.3-1 micromolar); cited from earlier work
Molecule,alkaline phosphatase activity [1],bone nodule formation [1],mineralized tissue in the femur segmental defect on radiographs [3],bone remodeling at the fracture site compared to control rats [3],Saos-2 cell proliferation [5],bone formation in the segmental defect region on radiographs compared to scaffold-only group [6],"activity of 5-lipoxygenase or LTA4 hydrolase, measured by the level of the LTB4 metabolite, in platelet-rich plasma [7]",other results
5-hydroxyeicosatetraenoic acid [5-HETE],reduce,reduce,–,–,–,–,–,BMP2 induced increase in mouse calvaria thickness [2]: prevented
"CC1=C(C)C(=O)C(CCCCC#CCCCC#CCO)=C(C)C1=O [AA-861, 2-(12-hydroxydodeca-5,10-diynyl)-3,5,6-trimethyl-1,4-benzoquinone]",–,–,more extensive mineralized tissue,more extensive bone remodeling,no effect,significantly more bone formation,significantly reduces,fracture bridging / healing on radiographs [4]: fractures healing faster; greater peak torque than vehicle treated rats [4]: 53%; mode of femur failure in torsional mechanical testing [4]: failed as boney unions
"CCCCC/C=C\C[C@@H](O)/C=C/C=C/C=C\[C@@H](O)CCCC(=O)O [LTB4, leukotriene B4]",reduce,reduce,–,–,promote proliferation,–,–,proliferation of primary rat calvaria (osteoblast) cultures [8]: reduces proliferation; G292 cell proliferation [9]: promote proliferation; BMP2 induced increase in mouse calvaria thickness [2]: prevented
"CCCCC/C=C\C\C=C/C=C/C=C/[C@@H](SC[C@H](NC(=O)CC[C@H](N)C(=O)O)C(=O)NCC(=O)O)[C@@H](O)CCCC(=O)O [LTC4, leukotriene C4]",–,–,–,–,no effect,–,–,proliferation of primary rat calvaria (osteoblast) cultures [8]: no effect; G292 cell proliferation [9]: promote proliferation
"CCCCC/C=C\C\C=C/C=C/C=C/[C@@H](SC[C@H](N)C(=O)NCC(=O)O)[C@@H](O)CCCC(=O)O [LTD4, leukotriene D4]",no effect,no effect,–,–,–,–,–,–
"CCc1cc(C(C)=O)c(O)cc1OCCCCCC(C)(C)c1nnn[nH]1 [LY-255283, 1-(5-ethyl-2-hydroxy-4-(6-methyl-6-(1H-tetrazol-5-yl)-heptyloxy)phenyl)ethanone]",–,–,some evident mineralized tissue,more extensive bone remodeling,–,significantly more bone formation,–,–
"CC(C)c1ccc2c(c1)c(SC(C)(C)C)c(CC(C)(C)C(=O)O)n2Cc1ccc(Cl)cc1 [MK-886, 3-[1-(4-chlorobenzyl)-3-t-butyl-thio-5-isopropylindol-2-yl]-2,2-dimethylpropanoic acid]",–,–,–,–,–,significantly more bone formation,significantly reduces,–
"CC(Cc1ccc(O)c(O)c1)C(C)Cc1ccc(O)c(O)c1 (centres unmarked) [NDGA, nordihydroguaiaretic acid]",–,–,–,–,–,–,–,fracture bridging / healing on radiographs [4]: fractures healing faster; greater peak torque than vehicle treated rats [4]: 22%; mode of femur failure in torsional mechanical testing [4]: failed as boney unions
"c1ccc(-c2ccc(OCCN3CCCC3)cc2)cc1 [SC-22716, 1-[2-(4-Phenylphenoxy)ethyl]pyrrolidine]",–,–,more extensive mineralized tissue,more extensive bone remodeling,–,significantly more bone formation,–,–
"CC(c1cc2ccccc2s1)N(O)C(N)=O (centres unmarked) [zileuton, N-(1-benzo[b]thien-2-ylethyl)-N-hydroxyurea]",–,–,–,more extensive bone remodeling,–,–,significantly reduces,–
